Experimental data as given in patent US20090269770A1, “METHODS FOR EVALUATION PROGNOSIS AND FOLLOW-UP OF DRUG TREATMENT OF PSYCHIATRIC DISEASES OR DISORDERS” (priority 2008, published 2009).
Values joined by “and” are separate entries in the source; they are usually repeats but may differ in a detail not shown here. Identical values can stand only once. “Also recorded” adds a separate entry of the source.

Test system: PMC from schizophrenic patients
Assay: GPCR cDNA array (GEArray Q series) of PMC gene expression, fluvoxamine augmentation
Format: in vivo, human
Set-up: key to Gene expression change CCR5 (X91492), divided by week 0 / Gene expression change CCR7 (L31581), divided by week 0 / Gene expression change CCRL1 (AF110640), divided by week 0 / Gene expression change CRL1 (U79527), divided by week 0 / Gene expression change IL8Rα (L19591), divided by week 0 / Gene expression change RGS7 (BC022009), divided by week 0 / Gene expression change 5-HT2A (X57830), divided by week 0 / Gene expression change 5-HT7 (L21195), divided by week 0 / Gene expression change CCR1 (D10925), divided by week 0: D—down regulation (<0.7); U—up regulation (>1.3); nc—No change; nd—Not detected
Conditions: for Gene expression change 5-HT2A (X57830), divided by week 0 / Gene expression change 5-HT7 (L21195), divided by week 0 / Gene expression change CCR1 (D10925), divided by week 0 / Gene expression change CCR5 (X91492), divided by week 0 / Gene expression change CCR7 (L31581), divided by week 0 / Gene expression change CCRL1 (AF110640), divided by week 0 / Gene expression change CRL1 (U79527), divided by week 0 / Gene expression change IL8Rα (L19591), divided by week 0 / Gene expression change RGS7 (BC022009), divided by week 0: PMC, one cell per patient I-VI
Description: Patients suffering from chronic schizophrenia (DSM IV criteria) with at least 2 years of illness (range 2-17 years) and persistent negative symptoms were chosen from an Israeli mental health center, as shown in Table 1. To qualify for inclusion in the study, these patients were required to be on constant antipsychotic medication for at least 6 months prior to the study and on an unchanged dose for at least 4 weeks before entry.
Fluvoxamine (100 mg/day) was added in an open study format to the antipsychotic treatment, which remained steady. Clinical state was assessed by psychiatrists using validated rating scales for negative (SANS) and positive (SAPS) symptoms (Silver et al., 2003) prior to fluvoxamine treatment and then weekly until the end of the trial period. Total SANS scores and summary scores for […] blunting, alogia, anhedonia and […] factors were the outcome measures. Extrapyramidal symptoms were assessed with the Simpson-Angus Scale (SAS) for extrapyramidal side effects (Simpson and Angus, 1970). Blood samples were taken at baseline (day 0), before addition of fluvoxamine, after 3 weeks of combined treatment, a time when the initial clinical effect is expected to be seen (Silver et al., 2003), and after 6 weeks of the combined treatment.
Blood samples (40 ml) from patients were collected in EDTA-coated tubes in order to prevent coagulation, and transported in ice to the laboratory for further processing. Each 15 ml of blood was completed to 40 ml with phosphate buffered saline (PBS) and gently mixed. PMC were isolated according to Ficoll protocol (Sigma, USA). In short, after addition of Ficoll reagent, the tubes were centrifuged (400 g, 30 min), and the interphase was transferred to a new tube, mixed with 100 ml PBS and centrifuged (400 g, 10 min). The supernatant was discarded and the pellet containing the PMC was washed 3 times with PBS (400 g, 10 min). TriReagent (Sigma, USA) was added to the pellet and left on ice for 15 min.
[…] chloroform was added to 1 ml of sample in TriReagent and the suspension was centrifuged (12,000 g, 20 min, 4° C.). After precipitation with isopropanol, the RNA pellet was washed twice with 70% ethanol (7,500 g, 10 min), followed by one wash with 96% ethanol (12,000 g, 10 min) and resuspended in diethylpyrocarbonate (DEPC)-treated water. RNA sample concentrations were determined by UV spectrophotometry at 260 nm (average OD260/2801.9-2). RNA purity was determined by the 260/230 and 260/280 ratios. RNA integrity was confirmed using gel (1.2% agarose) electrophoresis by direct visualization of 18S and 28S rRNA bands and densitometric analysis.
In the next step, gene expression profiles were examined with GEArray™ cDNA membranes, consisting of genes related to G protein-coupled receptor (GPCR) pathways (Q series human G protein-coupled receptor gene array II, SuperArray, Bethesda, Md., USA). Each membrane consists of 100 human cDNAs fragments associated with GPCR family, including receptors for dopamine (DA), serotonin (5-HT), acetylcholine and epinephrine; receptors for chemokines; GPCR kinases; Mitogen activated protein kinases; and regulators of G-protein signaling (RGS). Hybridization array analysis was performed according to the manufacturer's (SuperArray, Bethesda, Md.) protocol. Total RNA from each patient was reverse transcribed with biotinylated dUTP (Roche Diagnostics, Mannheim, Germany) and a gene specific primer mix (SuperArray, Bethesda, Md.). The probes were hybridized to the membrane and the array image was recorded using X-ray film. Quantitation of the results and analysis was accomplished using the manufacturer Software Package (SuperArray, Bethesda, Md.). The row values from 4 spotted replicates of a gene were averaged, normalized to the median of all intensity values on array and compared to control values, thereby assessing the relative expression level of a given mRNA. […]

[1] = after 3 weeks or more of the combined treatment
[2] = in at least 4 out of the 6 subjects after 3 weeks or more of the combined treatment

**Q.** Which results are given for `COCCCC/C(=N\OCCN)c1ccc(C(F)(F)F)cc1` [fluvoxamine]?
**A.** expression level of CCR5 [1]: increase; transcript encoding 5-HR7 [1]: reduced expression level; transcript encoding 5-HT2A [1]: reduced expression level; transcript encoding RGS7 [1]: reduced expression level; expression level of CCR1 [2]: decrease; expression level of CCRL1 [2]: decrease; expression level of CMKLR1 [2]: decrease; expression level of IL8Rα [2]: decrease; Gene expression change 5-HT2A (X57830), divided by week 0 (week 3): D (D—down regulation (<0.7)) (4×) and nc; Gene expression change 5-HT7 (L21195), divided by week 0 (week 3): D (D—down regulation (<0.7)) (4×) and nc; Gene expression change CCR1 (D10925), divided by week 0 (week 3): D (D—down regulation (<0.7)) (3×) and nc; Gene expression change CCR5 (X91492), divided by week 0 (week 3): U (U—up regulation (>1.3)); Gene expression change CCR7 (L31581), divided by week 0 (week 3): nc (2×) and D (D—down regulation (<0.7)) (3×) and U (U—up regulation (>1.3)); Gene expression change CCRL1 (AF110640), divided by week 0 (week 3): nc (3×) and D (D—down regulation (<0.7)) (3×); Gene expression change CRL1 (U79527), divided by week 0 (week 3): D (D—down regulation (<0.7)) (4×) and nc (2×); Gene expression change IL8Rα (L19591), divided by week 0 (week 3): D (D—down regulation (<0.7)) (3×) and nc and U (U—up regulation (>1.3)) (2×); Gene expression change RGS7 (BC022009), divided by week 0 (week 3): D (D—down regulation (<0.7)) (2×) and nc (3×) and U (U—up regulation (>1.3)); Gene expression change 5-HT2A (X57830), divided by week 0 (week 6): nc and D (D—down regulation (<0.7)) (4×); Gene expression change 5-HT7 (L21195), divided by week 0 (week 6): D (D—down regulation (<0.7)) (4×) and nc; Gene expression change CCR1 (D10925), divided by week 0 (week 6): D (D—down regulation (<0.7)); also recorded: U (U—up regulation (>1.3)); Gene expression change CCR5 (X91492), divided by week 0 (week 6): U (U—up regulation (>1.3)) and nc (2×) and D (D—down regulation (<0.7)); Gene expression change CCR7 (L31581), divided by week 0 (week 6): U (U—up regulation (>1.3)) (3×) and nc (2×) and D (D—down regulation (<0.7)); Gene expression change CCRL1 (AF110640), divided by week 0 (week 6): U (U—up regulation (>1.3)) (2×) and nc (2×) and D (D—down regulation (<0.7)) (2×); Gene expression change CRL1 (U79527), divided by week 0 (week 6): D (D—down regulation (<0.7)) (4×) and nc and U (U—up regulation (>1.3)); Gene expression change IL8Rα (L19591), divided by week 0 (week 6): D (D—down regulation (<0.7)) (4×) and U (U—up regulation (>1.3)) and nc; Gene expression change RGS7 (BC022009), divided by week 0 (week 6): D (D—down regulation (<0.7)) (4×) and nc (2×); expression level of CCR7 (week 6 compared with week 3): increased; expression level of CCRL1 (week 6 compared with week 3): increased
